According to US20110136762A1, “FUNGICIDAL PYRIDAZINES” (E.I. Du Pont de Nemours and Company, priority 2008, published 2011):

Experiments:
Assay type in all cases: in vivo
Erysiphe graminis = experiment: Test A: wheat powdery mildew, preventive spray on wheat seedlings, visual disease rating; details: 200 ppm, 100 = 100% disease control, 0 = no disease control relative to controls; for pest or weed control at 200 ppm: Blumeria graminis, 192 h
Excerpt: General protocol for preparing test suspensions for Tests A-F: […] The resulting test suspensions were then used in Tests A-F. The test suspensions were sprayed to the point of run-off on the test plants. All results are for 200 ppm (equivalent to a rate of 500 g/ha) except where followed by “*” which indicates 40 ppm. The test suspension was sprayed to the point of run-off on wheat seedlings. The following day the seedlings were inoculated with a spore dust of Erysiphe graminis, (the causal agent of wheat powdery mildew) and incubated in a growth chamber at 20° C. for 8 days, after which time visual disease ratings were made. […] A dash (-) indicates no test results. All results are for 200 ppm except where followed by “*”, which indicates 40 ppm.

Septoria tritici = experiment: Test C: wheat leaf blotch, preventive spray on wheat seedlings, visual disease rating; details: 200 ppm, 100 = 100% disease control, 0 = no disease control relative to controls; for pest or weed control at 200 ppm: Zymoseptoria tritici, 504 h
Excerpt: General protocol for preparing test suspensions for Tests A-F: […] The resulting test suspensions were then used in Tests A-F. The test suspensions were sprayed to the point of run-off on the test plants. All results are for 200 ppm (equivalent to a rate of 500 g/ha) except where followed by “*” which indicates 40 ppm. The test suspension was sprayed to the point of run-off on wheat seedlings. The following day the seedlings were inoculated with a spore suspension of Septoria tritici (the causal agent of wheat leaf blotch) and incubated in saturated atmosphere at 20° C. for 48 h, and moved to a growth chamber at 20° C. for 19 additional days, after which time visual disease ratings were made. […] A dash (-) indicates no test results. All results are for 200 ppm except where followed by “*”, which indicates 40 ppm.

Septoria nodorum = experiment: Test D: wheat glume blotch, preventive spray on wheat seedlings, visual disease rating; details: 200 ppm, 100 = 100% disease control, 0 = no disease control relative to controls; for pest or weed control at 200 ppm: Parastagonospora nodorum
Excerpt: General protocol for preparing test suspensions for Tests A-F: […] The resulting test suspensions were then used in Tests A-F. The test suspensions were sprayed to the point of run-off on the test plants. All results are for 200 ppm (equivalent to a rate of 500 g/ha) except where followed by “*” which indicates 40 ppm. The test suspension was sprayed to the point of run-off on wheat seedlings. The following day the seedlings were inoculated with a spore suspension of Septoria nodorum (the causal agent of wheat glume blotch) and incubated in a saturated atmosphere at 20° C. for 48 h, and then moved to a growth chamber at 20° C. for 7 days, after which time visual disease ratings were made. […] A dash (-) indicates no test results. All results are for 200 ppm except where followed by “*”, which indicates 40 ppm.

[1] = tested on: Puccinia recondita f. sp. tritici; experiment: Test B: wheat leaf rust, preventive spray on wheat seedlings, visual disease rating; details: 200 ppm, 100 = 100% disease control, 0 = no disease control relative to controls; for pest or weed control at 200 ppm: 192 h
Excerpt: General protocol for preparing test suspensions for Tests A-F: […] The resulting test suspensions were then used in Tests A-F. The test suspensions were sprayed to the point of run-off on the test plants. All results are for 200 ppm (equivalent to a rate of 500 g/ha) except where followed by “*” which indicates 40 ppm. The test suspension was sprayed to the point of run-off on wheat seedlings. The following day the seedlings were inoculated with a spore suspension of Puccinia recondita f. sp. tritici (the causal agent of wheat leaf rust) and incubated in a saturated atmosphere at 20° C. for 24 h, and then moved to a growth chamber at 20° C. for 7 days, after which time visual disease ratings were made. […] A dash (-) indicates no test results. All results are for 200 ppm except where followed by “*”, which indicates 40 ppm.

Alternaria solani = experiment: Test E: tomato early blight, preventive spray on tomato seedlings, visual disease rating; details: 200 ppm, 100 = 100% disease control, 0 = no disease control relative to controls; for pest or weed control at 200 ppm: Alternaria solani
Excerpt: General protocol for preparing test suspensions for Tests A-F: […] The resulting test suspensions were then used in Tests A-F. The test suspensions were sprayed to the point of run-off on the test plants. All results are for 200 ppm (equivalent to a rate of 500 g/ha) except where followed by “*” which indicates 40 ppm. The test suspension was sprayed to the point of run-off on tomato seedlings. […] A dash (-) indicates no test results. All results are for 200 ppm except where followed by “*”, which indicates 40 ppm.

Botrytis cinerea = experiment: Test F: tomato Botrytis, preventive spray on tomato seedlings, visual disease rating; details: 200 ppm, 100 = 100% disease control, 0 = no disease control relative to controls; for pest or weed control at 200 ppm: Botrytis cinerea
Excerpt: General protocol for preparing test suspensions for Tests A-F: […] The resulting test suspensions were then used in Tests A-F. The test suspensions were sprayed to the point of run-off on the test plants. All results are for 200 ppm (equivalent to a rate of 500 g/ha) except where followed by “*” which indicates 40 ppm. The test suspension was sprayed to the point of run-off on tomato seedlings. The following day the seedlings were inoculated with a spore suspension of Botrytis cinerea (the causal agent of tomato Botrytis) and incubated in saturated atmosphere at 20° C. for 48 h, and then moved to a growth chamber at 24° C. for 3 days, after which time visual disease ratings were made. […] A dash (-) indicates no test results. All results are for 200 ppm except where followed by “*”, which indicates 40 ppm.

| SMILES | pest or weed control at 200 ppm (Erysiphe graminis) | pest or weed control at 200 ppm (Septoria tritici) | pest or weed control at 200 ppm (Septoria nodorum) | pest or weed control at 200 ppm [1] | pest or weed control at 200 ppm (Alternaria solani) | pest or weed control at 200 ppm (Botrytis cinerea) | Test A rating (disease control, wheat powdery mildew) (Erysiphe graminis) | Test C rating (disease control, wheat leaf blotch) (Septoria tritici) | Test D rating (disease control, wheat glume blotch) (Septoria nodorum) | Test B rating (disease control, wheat leaf rust) [1] | Test E rating (disease control, tomato early blight) (Alternaria solani) | Test F rating (disease control, tomato Botrytis) (Botrytis cinerea) |
| --- | --- | --- | --- | --- | --- | --- | --- | --- | --- | --- | --- | --- |
| COc1cc(OC)cc(-c2c(-c3ccccc3)nnc(C)c2-c2ccc(F)cc2)c1 [Compound 1, 4-(3,5-dimethoxyphenyl)-5-(4-fluorophenyl)-6-methyl-3-phenylpyridazine] | 85% | 100% | 0% | 99% | 72% | 98% |  |  |  |  |  |  |
| COc1cc(OC)cc(-c2c(-c3ccccc3F)nnc(C)c2-c2ccc(F)cc2)c1 [Compound 2, 4-(3,5-dimethoxyphenyl)-3-(2-fluorophenyl)-5-(4-fluorophenyl)-6-methylpyridazine] | 97% | 100% | 0% | 99% | 99% | 99% |  |  |  |  |  |  |
| COc1cc(OC)cc(-c2c(-c3ccccc3)nnc(C)c2-c2ccccc2)c1 [Compound 3] |  |  |  |  |  |  | 52% | 87% | 0% | 86% | 0% | 52% |
| COc1cc(OC)cc(-c2c(-c3ccccc3F)nnc(C)c2-c2ccccc2)c1 [Compound 4] |  |  |  |  |  |  | 82% | 84% | 0% | 96% | 28% | 94% |
| COc1cc(OC)cc(-c2c(-c3ccc(F)cc3F)nnc(C)c2-c2ccccc2)c1 [Compound 5] |  |  |  |  |  |  | 91% | 94% | 0% | 86% | 0% | 82% |
| COc1cc(OC)cc(-c2c(-c3ccccc3)nnc(C)c2-c2ccc(Cl)cc2)c1 [Compound 6] |  |  |  |  |  |  | 79% | 97% | 0% | 97% | 36% | 67% |
| COc1ccc(-c2c(C)nnc(-c3ccccc3)c2-c2cc(OC)cc(OC)c2)cc1 [Compound 7, 4-(3,5-dimethoxyphenyl)-5-(4-methoxyphenyl)-6-methyl-3-phenylpyridazine] | 95% | 100% | 90% | 100% | 96% | 97% |  |  |  |  |  |  |
| COc1ccc(-c2c(C)nnc(-c3ccccc3F)c2-c2cc(OC)cc(OC)c2)cc1 [Compound 8, 4-(3,5-dimethoxyphenyl)-3-(2-fluorophenyl)-5-(4-methoxyphenyl)-6-methylpyridazine] | 97% | 100% | 95% | 100% | 99% | 98% |  |  |  |  |  |  |
| COc1ccc(-c2c(C)nnc(-c3ccc(F)cc3F)c2-c2cc(OC)cc(OC)c2)cc1 [Compound 9, 3-(2,4-difluorophenyl)-4-(3,5-dimethoxyphenyl)-5-(4-methoxyphenyl)-6-methylpyridazine] | 84% | 100% | 60% | 91% | 81% | 98% |  |  |  |  |  |  |
| COc1cc(OC)cc(-c2c(-c3cccc(F)c3F)nnc(C)c2-c2ccccc2)c1 [Compound 10] |  |  |  |  |  |  | 97% | 99% | 0% | 99% | 88% | 95% |
| COc1cc(OC)cc(-c2c(-c3ccc(F)cc3)nnc(C)c2-c2ccccc2)c1 [Compound 11] |  |  |  |  |  |  | 93% | 70% | 0% | 68% | 0% | 0% |
| COc1cc(OC)cc(-c2c(-c3ccccc3)n[n+]([O-])c(C)c2-c2ccc(F)cc2)c1 [Compound 12, 4-(3,5-dimethoxyphenyl)-5-(4-fluorophenyl)-6-methyl-3-phenylpyridazine 1-oxide] | 62% | 99% | 0% | 100% | 94% | 100% |  |  |  |  |  |  |
| COc1cc(OC)cc(-c2c(-c3ccccn3)nnc(C)c2-c2ccccc2)c1 [Compound 13, 4-(3,5-dimethoxyphenyl)-6-methyl-5-phenyl-3-(2-pyridinyl)pyridazine] | 0% | 0% | 0% | 41% | 0% | 0% |  |  |  |  |  |  |
| COc1cc(OC)cc(-c2c(-c3ccccc3)nnc(CCl)c2-c2ccc(F)cc2)c1 [Compound 14, 3-(chloromethyl)-5-(3,5-dimethoxyphenyl)-4-(4-fluorophenyl)-6-phenylpyridazine] | 11% | 77% | 0% | 91% | 0% | 99% |  |  |  |  |  |  |
| COc1cc(OC)cc(-c2c(-c3ccccc3F)nnc(C)c2-c2ccc(F)cc2F)c1 [Compound 15, 4-(2,4-difluorophenyl)-5-(3,5-dimethoxyphenyl)-6-(2-fluorophenyl)-3-methylpyridazine] | 100% | 99% | 98% | 100% | 100% | 98% |  |  |  |  |  |  |
| COc1cc(OC)cc(-c2c(-c3ccc(F)cc3F)cnnc2-c2ccccc2F)c1 [Compound 16] |  |  |  |  |  |  | 0% | 70% | 0% | 96% | 0% | 99% |
